In the NIST ThermoML archive (doi:10.1016/j.tca.2016.11.011):
Several values for one entry are separate records, joined by “and”; a condition that tells them apart may be missing. Equal values may be shown once. Numbers after ± are expanded uncertainties.

settings: DSC

Glass transition temperature	SMILES
24 ± 1 °C and 21.7 ± 1 °C	CC(=O)Nc1ccc(O)cc1 [N-acetyl-p-aminophenol]
44.5 ± 1 °C and 42.2 ± 1 °C	COC(=O)C1=C(C)NC(C)=C(C(=O)OC)C1c1ccccc1[N+](=O)[O-]
-24.7 ± 1 °C and -26.5 ± 1 °C	O[C@@H]1[C@@H](O)[C@@H]2OC[C@@H](O2)[C@H]1O [1,6-anhydro-β-D-glucopyranose]
